We go through five compounds from ChEMBL document CHEMBL1137135 (Bioorg Med Chem Lett, 2004).

Series [1] is described as follows: Binding affinity of compound towards Factor Xa.
Series [2] in a line: Plasma clearance of compound was determined in rat. The class given is ADME, organism-based.
The nature of series [3]: Vz of compound was determined in rat. It counts as ADME, organism-based. To be noted: in vivo, read-out: Vz.
Series [4] is described as follows: In vitro inhibitory activity against Factor Xa.
The species entered for another series is Rattus norvegicus. The series can be described thus: In vitro anticoagulant activity of compound was determined in rat. It counts as functional.
Series [5] in a line: Bioavailability in rat. It counts as ADME, organism-based. Particulars: in vivo.
The nature of series [6]: Half-life of compound was determined in rat. The class given is ADME. To be noted: in vivo.

Molecules are shown by their SMILES. pIC50, pKi: −log10 of the molar value.

As to `NS(=O)(=O)c1ccccc1-c1ccc(C(=O)NCCC(=O)Nc2ccc(Br)cn2)cc1`, in series [1], the negative-log Ki (pKi) (as a rule, the negative decadic logarithm of the Ki, by convention in mol/L) was 8.12. Besides, the clearance (in general, the volume of plasma or blood freed of the substance per unit of time) in series [2] amounted to 35 mL/min/kg. For the same compound, in series [3], the Vd came out at 5.4 L/kg. Moreover, in series [4], the pIC50 (usually the IC50 on a negative log10 scale, so that one unit is a factor of ten) is 7.92. The “TG 2X lag” value in the series listed under Rattus norvegicus came out at 14 µM. Also, the bioavailability – broadly, the share of a dose that reaches the circulation, judged against a reference dose that is usually intravenous – in series [5] is 2.67%. Also, the half-life – broadly, how long it takes for the measured level to halve – in series [6] was 1.77 h.
For the compound `NS(=O)(=O)c1ccccc1-c1ccc(C(=O)NC(CC(=O)Nc2ccc(Br)cn2)C(=O)O)cc1` (stereo not drawn), the pKi in series [1] is 8.76. The compound also yielded a clearance in series [2] of 6.7 mL/min/kg. In addition, in series [3], the Vd worked out at 0.6 L/kg. Also, in series [4], the pIC50 was 8.36. Also, the “2X PT” value in the series listed under Rattus norvegicus is 74 µM. In series [5], this compound showed a bioavailability of 4%. Moreover, the half-life in series [6] was 1 h.
`CN(C)Cc1ccccc1-c1ccc(C(=O)N[C@H](CC(=O)Nc2ccc(Cl)cn2)C(=O)N2CCCCC2)cc1`: the pKi in series [1] is 9.40. Moreover, in series [2], the clearance worked out at 178 mL/min/kg. Also, the Vd in series [3] worked out at 14 L/kg. In series [4], the negative-log IC50 (pIC50) was 8.77. Also, in the series listed under Rattus norvegicus, the “2X PT” value stood at 1.74 µM and the “TG 2X lag” value is 1 µM. This compound also returned a bioavailability in series [5] of 25.9%. Further, in series [6], the half-life was 1.18 h.
In series [1], `NS(=O)(=O)c1ccccc1-c1ccc(C(=O)NC(CC(=O)Nc2ccc(Br)cn2)C(=O)N2CCCCC2)cc1` (stereo not drawn) showed a pKi of 8.87. In series [2], this compound showed a clearance of 50.6 mL/min/kg. Besides, the Vd in series [3] was 5.9 L/kg. In series [4], the pIC50 is 8.12. Moreover, in the series listed under Rattus norvegicus, the “2X PT” value turned out to be 7 µM and the “TG 2X lag” value turned out to be 4.6 µM. The compound further displayed a bioavailability in series [5] of 2.7%. Moreover, the half-life in series [6] was 1.35 h.
The compound `CN(C)Cc1ccccc1-c1ccc(C(=O)N[C@@H](CC(=O)Nc2ccc(Cl)cn2)C(=O)N2CCCCC2)cc1` gave a negative logarithm of the Ki (pKi) in series [1] of 9.00. Further, in series [2], the clearance was found to be 124 mL/min/kg. Also, the Vd in series [3] amounted to 59.2 L/kg. For the same compound, in series [4], the pIC50 was 8.54. Moreover, in the series listed under Rattus norvegicus, the “2X PT” value worked out at 3.6 µM and the “TG 2X lag” value stood at 0.96 µM. The same compound returned a bioavailability in series [5] of 7.9%. The compound further showed a half-life in series [6] of 6.1 h.
